The values below come from patent US12215129B2, “Antibacterial cyclopeptides targeting acinetobacter and other gram-negative pathogens” (priority 2020, dated 2025).

For data set [1] the following is noted: human, in vivo; cited from earlier work.
The test system of data set [2] is Acinetobacter baumannii (ATCC 19606).
Data set [3] has as its system clinical A. baumannii complex isolates.
Data set [4] concerns A. baumannii ATCC 17978. Description: Thigh infection neutropenic mouse model, efficacy (CFU/thigh). The class given is in vivo, Acinetobacter baumannii. To be noted: 30 mg/kg SC, BID, q12h.

Where “and” joins values, the source holds several entries; their conditions need not be identical. Identical values can stand only once. Like-named read-outs stand apart in the source and are kept apart here. Marks after values point to notes of the source that are not given here.

Consider `CCCCCCCCCC(=O)N[C@@H](Cc1c[nH]c2ccccc12)C(=O)N[C@H](CC(N)=O)C(=O)N[C@@H](CC(=O)O)C(=O)N[C@@H]1C(=O)NCC(=O)N[C@@H](CCCN)C(=O)N[C@@H](CC(=O)O)C(=O)N[C@H](C)C(=O)N[C@@H](CC(=O)O)C(=O)NCC(=O)N[C@H](CO)C(=O)N[C@@H]([C@H](C)CC(=O)O)C(=O)N[C@@H](CC(=O)c2ccccc2N)C(=O)O[C@@H]1C` [Daptomycin], for which, in data set [1], the “Half Life” value is recorded as roughly 8 h; the Vss (in general, a proportionality between amount in the body and measured concentration, not a real space) is roughly 0.1 L/kg; the clearance – broadly, a measure of how efficiently the substance is removed, as volume per time – is roughly 0.15 mL/min/kg.
As for Colistin [reference compound], the minimal inhibitory concentration (MIC) (usually the lowest concentration found to suppress growth) was 2 µg/mL in data set [2]; 4 µg/mL in data set [3] (ARUP ABC 1); 4 µg/mL in data set [3] (ARUP ABC 2); greater than 32 µg/mL in data set [3] (ARUP ABC 3); 1 µg/mL in data set [3] (CDC AB282); 1 µg/mL in data set [3] (CDC AB286). Moreover, the minimum inhibitory concentration (MIC) is 2 µg/mL in data set [3] (CDC AB299), 2 µg/mL in data set [3] (CDC AB302), greater than 32 µg/mL in data set [3] (CDC AB303) and 8 µg/mL in data set [3] (CDC AB307). In addition, the “Decrease (%)” value in data set [4] (26 h, decrease in counts compared to the vehicle group) amounted to 100%. Further, the Δ in data set [4] (26 h, difference in bacterial counts relative to the baseline group (2 h initial counts)) was −2.73^#. For the same molecule, the “CFU/thigh Time post inoculation 2, 26 h” value in data set [4] (26 h, individual animals) is 1.77 × 10^3 CFU/thigh and 5.73 × 10^3 CFU/thigh and 5.64 × 10^3 CFU/thigh and 1.98 × 10^3 CFU/thigh and 3.57 × 10^3 CFU/thigh. In addition, the “Log (CFU/thigh) Time post inoculation 2, 26 h” value in data set [4] (26 h, individual animals) is 3.25 Log (CFU/thigh) and 3.76 Log (CFU/thigh) and 3.75 Log (CFU/thigh) and 3.30 Log (CFU/thigh) and 3.55 Log (CFU/thigh). Also, in data set [4] (26 h, mean of 5 animals), the “CFU/thigh Time post inoculation 2, 26 h, Mean” value is 3.74 × 10^3 CFU/thigh. The “Log (CFU/thigh) Time post inoculation 2, 26 h, Mean” value in data set [4] (26 h, mean of 5 animals) was 3.52* Log (CFU/thigh). Moreover, the “Dilution (CFU/plate) 0” value in data set [4] (raw data, dilution 0, individual animals) was 59 CFU/plate and 191 CFU/plate and 188 CFU/plate and 66 CFU/plate and 119 CFU/plate. In addition, the “Dilution (CFU/plate) 10^1” value in data set [4] (raw data, dilution 10^1, individual animals) was 3 CFU/plate and 20 CFU/plate and 21 CFU/plate and 8 CFU/plate and 13 CFU/plate. The “Dilution (CFU/plate) 10^2” value in data set [4] (raw data, dilution 10^2, individual animals) is 0 CFU/plate (3×) and 1 CFU/plate (2×). Moreover, the “Dilution (CFU/plate) 10^3” value in data set [4] (raw data, dilution 10^3, individual animals) is 0 CFU/plate.
